# Assay results: ChEMBL document CHEMBL6083286, “Discovery of ERD-12310A as an Exceptionally Potent and Orally Efficacious PROTAC Degrader of Estrogen Receptor α (ERα)” (J Med Chem, 2024)
# Active and inactive are the calls of the source. The calls are words filed in the database; no cut-off is given here.
# Tests used:
# [1] = molecular target: T1, Protein cereblon/Estrogen receptor (Homo sapiens, UniProt P03372+Q96SW2); test: PROTAC activity at CRBN/ERalpha in human T47D cells assessed as reduction in ERalpha protein level at 10 nM measured at 4 hrs by Western blot analysis; assay type: cell-based
# T1 sequence (P03372 whole entry, looked up): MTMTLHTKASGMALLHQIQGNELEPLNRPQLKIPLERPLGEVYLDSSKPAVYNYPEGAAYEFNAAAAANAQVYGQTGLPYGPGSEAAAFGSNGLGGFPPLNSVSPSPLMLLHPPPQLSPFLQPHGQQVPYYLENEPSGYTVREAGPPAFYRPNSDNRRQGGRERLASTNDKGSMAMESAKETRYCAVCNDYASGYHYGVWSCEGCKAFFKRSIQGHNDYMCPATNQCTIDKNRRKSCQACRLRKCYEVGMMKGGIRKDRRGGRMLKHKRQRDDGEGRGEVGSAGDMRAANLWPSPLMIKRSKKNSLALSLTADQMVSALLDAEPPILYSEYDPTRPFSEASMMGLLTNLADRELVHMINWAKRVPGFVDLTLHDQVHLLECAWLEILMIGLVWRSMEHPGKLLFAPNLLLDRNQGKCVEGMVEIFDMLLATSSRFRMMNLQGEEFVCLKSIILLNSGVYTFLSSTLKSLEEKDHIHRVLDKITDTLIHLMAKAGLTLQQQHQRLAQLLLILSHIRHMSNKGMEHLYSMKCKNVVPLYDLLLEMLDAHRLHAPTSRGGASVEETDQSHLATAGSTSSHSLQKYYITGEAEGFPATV
# T1 sequence (Q96SW2 whole entry, looked up): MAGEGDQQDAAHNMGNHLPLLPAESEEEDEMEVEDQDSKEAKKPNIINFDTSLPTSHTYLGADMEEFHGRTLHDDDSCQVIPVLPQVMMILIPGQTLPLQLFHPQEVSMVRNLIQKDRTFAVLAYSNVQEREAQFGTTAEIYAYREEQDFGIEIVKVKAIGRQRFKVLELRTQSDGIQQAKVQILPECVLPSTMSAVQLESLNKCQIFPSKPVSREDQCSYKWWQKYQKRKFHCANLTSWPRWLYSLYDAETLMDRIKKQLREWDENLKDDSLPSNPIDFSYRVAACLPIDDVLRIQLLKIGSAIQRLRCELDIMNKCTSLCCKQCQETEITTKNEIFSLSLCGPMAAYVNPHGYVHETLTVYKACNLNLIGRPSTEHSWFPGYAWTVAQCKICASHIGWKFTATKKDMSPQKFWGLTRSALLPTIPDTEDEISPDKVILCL
# [2] = Volume of distribution at steady state in rat at 3 mg/kg, po or 1 mg/kg, iv measured upto 24 hrs by LC-MS/MS analysis; assay type: ADME, organism-based; conditions: in vivo
# Cytochrome P450 2B6 = molecular target: T2, Cytochrome P450 2B6 (Homo sapiens, UniProt P20813); test: Inhibition of CYP2B6 in human liver microsomes preincubated for 5 mins followed by NADPH addition and measured after 10 mins by LC-MS/MS analysis; assay type: ADME, Microsome
# T2 sequence (P20813 whole entry): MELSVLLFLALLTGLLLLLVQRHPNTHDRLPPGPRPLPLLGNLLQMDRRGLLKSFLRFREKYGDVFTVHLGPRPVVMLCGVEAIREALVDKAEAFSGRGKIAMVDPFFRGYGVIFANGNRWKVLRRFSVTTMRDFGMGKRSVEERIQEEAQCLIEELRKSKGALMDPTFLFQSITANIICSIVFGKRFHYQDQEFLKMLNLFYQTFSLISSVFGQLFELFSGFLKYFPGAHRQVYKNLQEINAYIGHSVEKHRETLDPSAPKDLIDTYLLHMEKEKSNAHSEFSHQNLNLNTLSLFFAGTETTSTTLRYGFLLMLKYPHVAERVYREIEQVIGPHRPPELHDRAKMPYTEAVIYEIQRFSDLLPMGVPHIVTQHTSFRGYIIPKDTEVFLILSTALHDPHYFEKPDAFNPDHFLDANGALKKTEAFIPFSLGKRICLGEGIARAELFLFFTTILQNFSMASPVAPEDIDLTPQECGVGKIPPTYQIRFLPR
# [3] = Cmax in mouse at 3 mg/kg, po or 1 mg/kg, iv measured upto 24 hrs by LC-MS/MS analysis; assay type: ADME, organism-based; conditions: in vivo
# [4] = Plasma protein binding in human; assay type: ADME, cell-free
# MCF7 [5] = test: Antitumor activity against human MCF7 cells xenografted in SCID mouse assessed as tumor growth inhibition at 3 mg/kg, po administered for 41 to 76 days; assay type: functional; conditions: time 41-76 day, read-out: TGI
# [6] = AUC (0 to infinity) in rat at 3 mg/kg, po or 1 mg/kg, iv measured upto 24 hrs by LC-MS/MS analysis; assay type: ADME, organism-based; conditions: in vivo
# [7] = Oral bioavailability in rat at 3 mg/kg measured upto 24 hrs by LC-MS/MS analysis; assay type: ADME, organism-based; conditions: in vivo
# [8] = AUC (0 to infinity) in dog at 3 mg/kg, po or 1 mg/kg, iv measured upto 24 hrs by LC-MS/MS analysis; assay type: ADME, organism-based, Canis lupus familiaris; conditions: in vivo
# [9] = Plasma protein binding in mouse; assay type: ADME, cell-free
# [10] = Cmax in rat at 3 mg/kg, po or 1 mg/kg, iv measured upto 24 hrs by LC-MS/MS analysis; assay type: ADME, organism-based; conditions: in vivo
# [11] = Stability in mouse plasma assessed as half life; assay type: ADME, cell-free
# [12] = molecular target: T1, Protein cereblon/Estrogen receptor; test: PROTAC activity at CRBN/wild type ERalpha in human T47D cells assessed as reduction in ERalpha protein level at 10 to 100 nM measured at 7 hrs by Western blot analysis; assay type: cell-based; conditions: dose 10-100 nM
# MCF7 [13] = test: Antitumor activity against human MCF7 cells xenografted in SCID mouse assessed as tumor growth inhibition at 30 mg/kg, po administered for 5 weeks and measured on day 81; assay type: functional; conditions: MCF7, 1944 h, time 81 day, read-out: TGI
# MCF7 [14] = test: Antitumor activity against human MCF7 cells expressing ESR1 Y537S mutant xenografted in SCID mouse assessed as tumor growth inhibition at 10 mg/kg, po administered 5 days a week for 5 weeks; assay type: functional; conditions: MCF7, 840 h, read-out: TGI
# [15] = molecular target: T1, Protein cereblon/Estrogen receptor; test: PROTAC activity at CRBN/ERalpha in human MCF7 cells assessed as reduction ER level at 100 nM measured for 5 hrs by Western blot analysis; assay type: cell-based
# [16] = Volume of distribution at steady state in dog at 3 mg/kg, po or 1 mg/kg, iv measured upto 24 hrs by LC-MS/MS analysis; assay type: ADME, organism-based, Canis lupus familiaris; conditions: in vivo
# [17] = Half life in dog at 3 mg/kg, po or 1 mg/kg, iv measured upto 24 hrs by LC-MS/MS analysis; assay type: ADME, organism-based, Canis lupus familiaris; conditions: in vivo
# Cytochrome P450 2C8 = molecular target: T3, Cytochrome P450 2C8 (Homo sapiens, UniProt P10632); test: Inhibition of CYP2C8 in human liver microsomes incubated for 5 mins in presence of NADPH by LC-MS/MS analysis; assay type: ADME, Microsome
# T3 sequence (P10632 whole entry): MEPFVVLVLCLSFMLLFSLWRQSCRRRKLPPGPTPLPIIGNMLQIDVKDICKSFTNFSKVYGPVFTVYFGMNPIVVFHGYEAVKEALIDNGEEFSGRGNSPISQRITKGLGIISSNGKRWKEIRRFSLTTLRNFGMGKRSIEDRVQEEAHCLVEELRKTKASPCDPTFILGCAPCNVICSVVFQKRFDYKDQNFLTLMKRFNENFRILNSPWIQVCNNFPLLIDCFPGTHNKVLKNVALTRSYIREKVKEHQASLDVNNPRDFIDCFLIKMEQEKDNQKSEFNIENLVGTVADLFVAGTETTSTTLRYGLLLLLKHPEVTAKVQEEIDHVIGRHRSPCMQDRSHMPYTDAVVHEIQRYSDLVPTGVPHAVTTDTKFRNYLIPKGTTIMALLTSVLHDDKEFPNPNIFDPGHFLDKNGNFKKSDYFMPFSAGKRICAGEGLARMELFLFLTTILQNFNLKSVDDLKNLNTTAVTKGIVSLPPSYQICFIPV
# [18] = Metabolic stability mouse liver microsome assessed as half life; assay type: ADME; conditions: microsomes
# [19] = molecular target: T1, Protein cereblon/Estrogen receptor; test: PROTAC activity at CRBN/ERalpha in human MCF7 cells assessed as reduction in ERalpha protein level measured after 12 hrs by Western blot analysis relative to control; assay type: cell-based
# [20] = molecular target: T1, Protein cereblon/Estrogen receptor; test: PROTAC activity at CRBN/ERalpha in human MCF7 cells assessed as reduction in ERalpha protein level at 5 nM measured for 4 hrs in presence of PR-171 by Western blot analysis; assay type: cell-based
# [21] = molecular target: Voltage-gated inwardly rectifying potassium channel KCNH2 (Homo sapiens, UniProt Q12809); test: Inhibition of hERG in HEK293 cells by whole-cell patch clamp assay; assay type: toxicity, cell-based
# Voltage-gated inwardly rectifying potassium channel KCNH2, sequence (Q12809 whole entry): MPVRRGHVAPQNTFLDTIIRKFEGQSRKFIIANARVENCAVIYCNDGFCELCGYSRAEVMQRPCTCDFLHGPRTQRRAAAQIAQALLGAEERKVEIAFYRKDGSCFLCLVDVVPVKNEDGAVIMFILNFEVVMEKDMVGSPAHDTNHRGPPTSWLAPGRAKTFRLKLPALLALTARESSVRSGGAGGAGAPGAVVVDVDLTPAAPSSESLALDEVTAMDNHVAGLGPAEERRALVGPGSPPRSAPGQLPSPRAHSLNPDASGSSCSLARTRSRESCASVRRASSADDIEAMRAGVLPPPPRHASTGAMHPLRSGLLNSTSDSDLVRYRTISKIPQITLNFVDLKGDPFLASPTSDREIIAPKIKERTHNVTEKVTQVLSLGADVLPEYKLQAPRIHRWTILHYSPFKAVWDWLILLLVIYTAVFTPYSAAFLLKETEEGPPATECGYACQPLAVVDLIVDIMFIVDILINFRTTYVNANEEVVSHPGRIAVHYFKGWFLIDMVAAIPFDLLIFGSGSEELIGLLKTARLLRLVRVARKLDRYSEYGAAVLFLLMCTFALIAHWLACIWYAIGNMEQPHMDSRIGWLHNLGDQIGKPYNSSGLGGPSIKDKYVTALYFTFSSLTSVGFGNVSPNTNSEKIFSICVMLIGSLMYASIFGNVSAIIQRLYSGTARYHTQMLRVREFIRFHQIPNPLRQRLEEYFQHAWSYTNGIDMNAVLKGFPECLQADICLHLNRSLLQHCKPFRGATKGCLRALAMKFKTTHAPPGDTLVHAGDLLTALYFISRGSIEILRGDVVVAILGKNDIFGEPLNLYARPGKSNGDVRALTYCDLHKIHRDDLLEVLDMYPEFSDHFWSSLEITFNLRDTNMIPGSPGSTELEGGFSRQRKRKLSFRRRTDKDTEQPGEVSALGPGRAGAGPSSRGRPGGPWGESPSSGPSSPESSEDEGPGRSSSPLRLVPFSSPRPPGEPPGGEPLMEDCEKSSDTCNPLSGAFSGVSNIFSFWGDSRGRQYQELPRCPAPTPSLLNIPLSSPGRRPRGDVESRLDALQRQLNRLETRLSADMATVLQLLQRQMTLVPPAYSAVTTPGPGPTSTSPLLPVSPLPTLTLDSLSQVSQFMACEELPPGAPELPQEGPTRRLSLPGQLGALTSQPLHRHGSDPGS
# [22] = Drug concentration in SCID mouse tumor at 30 mg/kg, po administered daily for 3 days and measured after 24 hrs by LC-MS/MS analysis; assay type: ADME, organism-based, Neoplasm; conditions: read-out: Ct
compound,measurement,setting,value
O=C1CC[C@H](N2Cc3c(ccc4c3OCC43CCN(C[C@@H]4CCC5(CCN(c6ccc([C@@H]7c8ccc(O)cc8CC[C@@H]7c7ccccc7)cc6)CC5)OC4)CC3)C2=O)C(=O)N1,Activity,[1],Active
same,Vdss,[2],1.9 L/kg
same,IC50,Cytochrome P450 2B6,2.5 µM
same,Cmax,[3],58.6 ng/mL
same,PPB,[4],98.9%
same,inhibition in vivo at 3 mg/kg,MCF7 [5],93%
same,AUC,[6],583 ng·h/mL
same,F,[7],10%
same,AUC(0-inf),[8],15500 ng·h/mL
same,PPB,[9],99%
same,Cmax,[10],57.7 ng/mL
same,t1/2,[11],> 4 h
same,Activity,[12],Active
same,inhibition in vivo at 30 mg/kg,MCF7 [13],110%
same,inhibition in vivo at 10 mg/kg,MCF7 [14],75%
same,Activity,[15],No effect
same,Vdss,[16],3.2 L/kg
same,t1/2,[17],23.2 h
same,IC50,Cytochrome P450 2C8,> 10 µM
same,t1/2,[18],> 1 h
same,Emax,[19],103%
same,Activity,[20],inactive
same,IC50,[21],> 10 µM
same,concentration at 96 h,[22],1090 ng/mL
